Experimental data as given in the supplement of paper PMC10307832.

Legend:
Assay in all cases: relative viability (nuclei count vs DMSO), 5 days (fraction); higher = more cells survive
NCI-H1755 = system: NCI-H1755
Method in brief: (§1)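 Relative viability was taken as the ratio of nuclei in treated wells to nuclei in vehicle wells. Lung cancer cell lines in 1536-well plates received compounds by pin tool one day after seeding, either one drug alone or a fixed anchor-drug dose plus five library-drug doses (not always all listed) in √10 steps. Nuclei were counted on 4× images after 5 days of treatment, and values are medians of duplicate plates.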

NCI-H1793 = system: NCI-H1793
Method in brief: as §1

NCI-H1944 = system: NCI-H1944
Method in brief: as §1

NCI-H2087 = system: NCI-H2087
Method in brief: as §1

NCI-H2170 = system: NCI-H2170
Method in brief: as §1

NCI-H2228 = system: NCI-H2228
Method in brief: as §1

NCI-H2405 = system: NCI-H2405
Method in brief: as §1

NCI-H3122 = system: NCI-H3122
Method in brief: as §1

NCI-H460 = system: NCI-H460
Method in brief: as §1

PC-3 [JPC-3] = system: PC-3 [JPC-3]
Method in brief: as §1

RERF-LC-KJ = system: RERF-LC-KJ
Method in brief: as §1

UMC-11 = system: UMC-11
Method in brief: as §1

Compound: COc1cc(N2CCC(C(N)=O)CC2)ccc1Nc1nc(N)c(Cl)c(Nc2ccccc2S(=O)(=O)C(C)C)n1 [HG-5-88-01] + CC(=O)c1c(C)c2cnc(Nc3ccc(N4CCNCC4)cn3)nc2n(C2CCCC2)c1=O [Palbociclib] (partner 0.5 µM)
- relative viability (NCI-H1755; first compound 0.04 µM): 0.42
- relative viability (NCI-H1755; first compound 0.1265 µM): 0.494
- relative viability (NCI-H1755; first compound 0.4 µM): 0.485
- relative viability (NCI-H1755; first compound 1.265 µM): 0.419
- relative viability (NCI-H1755; first compound 4 µM): 0.455
- relative viability (NCI-H1793; first compound 0.04 µM): 0.301
- relative viability (NCI-H1793; first compound 0.1265 µM): 0.309
- relative viability (NCI-H1793; first compound 0.4 µM): 0.299
- relative viability (NCI-H1793; first compound 1.265 µM): 0.24
- relative viability (NCI-H1793; first compound 4 µM): 0.33
- relative viability (NCI-H1944; first compound 0.04 µM): 0.37
- relative viability (NCI-H1944; first compound 0.1265 µM): 0.351
- relative viability (NCI-H1944; first compound 0.4 µM): 0.36
- relative viability (NCI-H1944; first compound 1.265 µM): 0.322
- relative viability (NCI-H1944; first compound 4 µM): 0.31
- relative viability (NCI-H2087; first compound 0.04 µM): 0.242
- relative viability (NCI-H2087; first compound 0.1265 µM): 0.246
- relative viability (NCI-H2087; first compound 0.4 µM): 0.219
- relative viability (NCI-H2087; first compound 1.265 µM): 0.207
- relative viability (NCI-H2087; first compound 4 µM): 0.244
- relative viability (NCI-H2170; first compound 0.04 µM): 0.366
- relative viability (NCI-H2170; first compound 0.1265 µM): 0.386
- relative viability (NCI-H2170; first compound 0.4 µM): 0.407
- relative viability (NCI-H2170; first compound 1.265 µM): 0.361
- relative viability (NCI-H2170; first compound 4 µM): 0.457
- relative viability (NCI-H2228; first compound 0.04 µM): 0.388
- relative viability (NCI-H2228; first compound 0.1265 µM): 0.388
- relative viability (NCI-H2228; first compound 0.4 µM): 0.319
- relative viability (NCI-H2228; first compound 1.265 µM): 0.247
- relative viability (NCI-H2228; first compound 4 µM): 0.231
- relative viability (NCI-H2405; first compound 0.04 µM): 0.515
- relative viability (NCI-H2405; first compound 0.1265 µM): 0.523
- relative viability (NCI-H2405; first compound 0.4 µM): 0.528
- relative viability (NCI-H2405; first compound 1.265 µM): 0.348
- relative viability (NCI-H2405; first compound 4 µM): 0.462
- relative viability (NCI-H3122; first compound 0.04 µM): 0.161
- relative viability (NCI-H3122; first compound 0.1265 µM): 0.138
- relative viability (NCI-H3122; first compound 0.4 µM): 0.11
- relative viability (NCI-H3122; first compound 1.265 µM): 0.111
- relative viability (NCI-H3122; first compound 4 µM): 0.0988
- relative viability (NCI-H460; first compound 0.04 µM): 0.171
- relative viability (NCI-H460; first compound 0.1265 µM): 0.155
- relative viability (NCI-H460; first compound 0.4 µM): 0.0931
- relative viability (NCI-H460; first compound 1.265 µM): 0.247
- relative viability (NCI-H460; first compound 4 µM): 0.274
- relative viability (PC-3 [JPC-3]; first compound 0.04 µM): 0.485
- relative viability (PC-3 [JPC-3]; first compound 0.1265 µM): 0.586
- relative viability (PC-3 [JPC-3]; first compound 0.4 µM): 0.512
- relative viability (PC-3 [JPC-3]; first compound 1.265 µM): 0.426
- relative viability (PC-3 [JPC-3]; first compound 4 µM): 0.422
- relative viability (RERF-LC-KJ; first compound 0.04 µM): 1.07
- relative viability (RERF-LC-KJ; first compound 0.1265 µM): 1.14
- relative viability (RERF-LC-KJ; first compound 0.4 µM): 1.08
- relative viability (RERF-LC-KJ; first compound 1.265 µM): 0.908
- relative viability (RERF-LC-KJ; first compound 4 µM): 0.656
- relative viability (UMC-11; first compound 0.04 µM): 0.321
- relative viability (UMC-11; first compound 0.1265 µM): 0.369
- relative viability (UMC-11; first compound 0.4 µM): 0.297
- relative viability (UMC-11; first compound 1.265 µM): 0.348
- relative viability (UMC-11; first compound 4 µM): 0.308
